According to publication PMC3842171 (Bioorganic & medicinal chemistry letters, 2011):

Key:
HDAC1, HDAC3, and HDAC6 = experiment: Single-concentration isoform selectivity screen with Fluor de Lys kit; type: biochemical
[1] = system: HDAC activity (HeLa cell lysates); experiment: Fluor de Lys in vitro fluorescence HDAC activity assay using HeLa cell lysates; type: biochemical

Row | Structure (SMILES) | isoform preference in single-concentration screen (HDAC1, HDAC3, and HDAC6; 32 µM) | fold decreased activity compared to the methyl analogue 1e [1] | isoform preference in single-concentration screen (HDAC1, HDAC3, and HDAC6; 375 nM) | fold less potent than SAHA ([1]; IC50 ratio versus SAHA)
1 | C=CC(CCCCC(=O)Nc1ccccc1)CC(=O)NO (stereo not shown) [Compound 1d] | preference for HDAC6 over HDAC3 | – | – | –
2 | CCCCC(CCCCC(=O)Nc1ccccc1)CC(=O)NO (stereo not shown) [Compound 1a, C3-n-butyl SAHA] | preference for HDAC6 over HDAC3 | – | – | –
3 | O=C(CC(CCCCC(=O)Nc1ccccc1)c1ccccc1)NO (stereo not shown) [Compound 1b] | preference for HDAC6 over HDAC3 | – | – | –
4 | CCC(CCCCC(=O)Nc1ccccc1)CC(=O)NO (stereo not shown) [Compound 1c] | greater potency for HDAC6 over HDAC1 and HDAC3 | 91 fold | – | –
5 | CC(CCCCC(=O)Nc1ccccc1)CC(=O)NO (stereo not shown) [Compound 1e] | – | – | slight preference for HDAC1 over HDAC3 and HDAC6 | 4 fold
